Source: PubChem BioAssay AID2060495 (Molecular Pharmacology Branch, DTP, NCI, 2025)

Tested on: 521955-158-R2-J5-PDC complex spheroid viability
Assay: Anticancer human tumor 521955-158-R2-J5-PDC patient-derived pancreatic carcinoma cell line growth inhibition [GQUAD]
Details: for IC50: curve of first compound; for viability, T/C: stronger effect = lower value
Method in brief: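 Tumor cells were grown as complex spheroids with HUVEC endothelial cells and mesenchymal stem cells as stroma. G-quadruplex stabilizers were combined with targeted agents over half-log dilutions from near the clinical Cmax, or from 10 microM.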
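Also: spheroids exposed to agents for one week before reading.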
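For viability, T/C in this document: 100% = DMSO vehicle control viability.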

Structure (SMILES): Cc1[nH]c2ccccc2c1CCNCc1ccc(/C=C/C(=O)NO)cc1 + CN(C)c1ccc(Nc2c3ccc(NC(=O)CCN4CCCC4)cc3nc3cc(NC(=O)CCN4CCCC4)ccc23)cc1
- IC50 (second compound 0.0316 µM): 168 nM
- IC50 (second compound 0.1 µM): 117 nM
- IC50 (second compound 0.316 µM): 156 nM
- IC50 (second compound 1 µM): 180 nM
- IC50 (second compound 3.16 µM): 119 nM
- IC50 (second compound 10 µM): 67.6 nM
- viability, T/C (second compound 0.0316 µM, first compound 0.000999 µM): 132%
- viability, T/C (second compound 0.0316 µM, first compound 0.00316 µM): 110%
- viability, T/C (second compound 0.0316 µM, first compound 0.00999 µM): 133%
- viability, T/C (second compound 0.0316 µM, first compound 0.0316 µM): 109%
- viability, T/C (second compound 0.0316 µM, first compound 0.0999 µM): 72.3%
- viability, T/C (second compound 0.0316 µM, first compound 0.316 µM): 23.4%
- viability, T/C (second compound 0.1 µM, first compound 0.000999 µM): 113%
- viability, T/C (second compound 0.1 µM, first compound 0.00316 µM): 132%
- viability, T/C (second compound 0.1 µM, first compound 0.00999 µM): 128%
- viability, T/C (second compound 0.1 µM, first compound 0.0316 µM): 121%
- viability, T/C (second compound 0.1 µM, first compound 0.0999 µM): 54.8%
- viability, T/C (second compound 0.1 µM, first compound 0.316 µM): 19.7%
- viability, T/C (second compound 0.316 µM, first compound 0.000999 µM): 105%
- viability, T/C (second compound 0.316 µM, first compound 0.00316 µM): 125%
- viability, T/C (second compound 0.316 µM, first compound 0.00999 µM): 123%
- viability, T/C (second compound 0.316 µM, first compound 0.0316 µM): 90.8%
- viability, T/C (second compound 0.316 µM, first compound 0.0999 µM): 68.7%
- viability, T/C (second compound 0.316 µM, first compound 0.316 µM): 24.4%
- viability, T/C (second compound 1 µM, first compound 0.000999 µM): 107%
- viability, T/C (second compound 1 µM, first compound 0.00316 µM): 114%
- viability, T/C (second compound 1 µM, first compound 0.00999 µM): 134%
- viability, T/C (second compound 1 µM, first compound 0.0316 µM): 114%
- viability, T/C (second compound 1 µM, first compound 0.0999 µM): 82.6%
- viability, T/C (second compound 1 µM, first compound 0.316 µM): 19%
- viability, T/C (second compound 3.16 µM, first compound 0.000999 µM): 91.7%
- viability, T/C (second compound 3.16 µM, first compound 0.00316 µM): 116%
- viability, T/C (second compound 3.16 µM, first compound 0.00999 µM): 119%
- viability, T/C (second compound 3.16 µM, first compound 0.0316 µM): 97%
- viability, T/C (second compound 3.16 µM, first compound 0.0999 µM): 56.9%
- viability, T/C (second compound 3.16 µM, first compound 0.316 µM): 13.2%
- viability, T/C (second compound 10 µM, first compound 0.000999 µM): 70.7%
- viability, T/C (second compound 10 µM, first compound 0.00316 µM): 103%
- viability, T/C (second compound 10 µM, first compound 0.00999 µM): 79.3%
- viability, T/C (second compound 10 µM, first compound 0.0316 µM): 82.6%
- viability, T/C (second compound 10 µM, first compound 0.0999 µM): 33.3%
- viability, T/C (second compound 10 µM, first compound 0.316 µM): 3.21%
